{"source": "patent US20060141067A1", "about": "“Anti-allergic herbal formulation” (priority 2004, published 2006)", "tested_on": "mast cell", "test": "Mast cell degranulation in rats (histamine released)", "type": "in vivo", "details": "25 mg/kg p.o., mean ± S.E.M.", "method": "Mast cell degranulation: Tyrode solution (10 ml) containing 5 units/ml of heparin was injected in the peritoneal cavity of sensitized male rats lightly anaesthetized with ether. After a gentle abdominal massage for about 30 to 45 sec, the mast cell rich peritoneal fluid was collected over ice and centrifuged at 2000 rpm for 5 min. The cells were washed thrice with chilled Tyrode and resuspended in about 1 ml of Tyrode solution. The peritoneal fluid was obtained from 10 rats and the final volume of the fluid was pooled and used for the studies (Nair A M et al, 1997).", "note": "Marks after values point to notes of the source that are not given here."}
{"smiles": "CN(C)CCC(c1ccccc1)c1ccccn1.O=C(O)/C=C\\C(=O)O", "note": "(stereo not shown) [Avil]", "values": [{"measurement": "Histamine released", "result": "0.345 ± 0.04^b μg/ml"}]}
